Values of other authors as cited in US10806826B2, “Bone graft substitute containing a temporary contrast agent and a method of generating such and a method of use thereof” (BACTERIN INTERNATIONAL, INC., priority 2013, dated 2020).
Like-named read-outs stand apart in the source and are kept apart here. One block for each compound: values may come before it.

Assays:
[1] = intravenous
[2] = oral, dosage 2-12 mL/kg
[3] = intravascular

- Clearance/Half-life (t1/2) [1]: 1510 h
SMILES: FC(F)(F)C(F)(F)C(F)(F)N(C(F)(F)C(F)(F)C(F)(F)F)C(F)(F)C(F)(F)C(F)(F)F [Perfluorotripropylamine]

- Clearance: excreted within 24 hours [2]: >95% excreted
- Clearance/Half-life (t1/2) ([3]; dosage 1.2 g/kg): 9.4 h
- Clearance/Half-life (t1/2) ([3]; dosage 1.8 g/kg): t1/2 = 6.1 hours
SMILES: FC(F)(F)C(F)(F)C(F)(F)C(F)(F)C(F)(F)C(F)(F)C(F)(F)C(F)(F)Br [Perfluorooctyl bromide, perfluorooctyl bromide]

- Clearance/Half-life (t1/2) ([1]; dosage varies by imaging needs): t1/2 = 30-60 minutes
- Clearance: excreted within 24 hours ([3]; dosage 500-1500 mgl/kg): ~90% excreted
SMILES: CC(=O)N(CC(O)CO)c1c(I)c(C(=O)NCC(O)CO)c(I)c(C(=O)NCC(O)CO)c1I (stereo not shown) [Iohexol]

- Clearance/Half-life (t1/2) [1]: 140 h
SMILES: FC1(F)C(F)(F)C(F)(F)C2(F)C(F)(F)C(F)(F)C(F)(F)C(F)(F)C2(F)C1(F)F (stereo not shown) [Perfluorodecalin]
